Experimental data taken from US20260297108A1, “NOVEL INHIBITORS OF PIKFYVE AND METHODS USING SAME” (priority 2023, published 2026).

These molecules were tested against PIKFYVE (Homo sapiens, UniProt Q9Y2I7) (assay: KINOMEscan Kinase Assay (PIKFYVE inhibitory activity)). Conditions: not given.
Chain of PIKFYVE (Q9Y2I7 whole entry): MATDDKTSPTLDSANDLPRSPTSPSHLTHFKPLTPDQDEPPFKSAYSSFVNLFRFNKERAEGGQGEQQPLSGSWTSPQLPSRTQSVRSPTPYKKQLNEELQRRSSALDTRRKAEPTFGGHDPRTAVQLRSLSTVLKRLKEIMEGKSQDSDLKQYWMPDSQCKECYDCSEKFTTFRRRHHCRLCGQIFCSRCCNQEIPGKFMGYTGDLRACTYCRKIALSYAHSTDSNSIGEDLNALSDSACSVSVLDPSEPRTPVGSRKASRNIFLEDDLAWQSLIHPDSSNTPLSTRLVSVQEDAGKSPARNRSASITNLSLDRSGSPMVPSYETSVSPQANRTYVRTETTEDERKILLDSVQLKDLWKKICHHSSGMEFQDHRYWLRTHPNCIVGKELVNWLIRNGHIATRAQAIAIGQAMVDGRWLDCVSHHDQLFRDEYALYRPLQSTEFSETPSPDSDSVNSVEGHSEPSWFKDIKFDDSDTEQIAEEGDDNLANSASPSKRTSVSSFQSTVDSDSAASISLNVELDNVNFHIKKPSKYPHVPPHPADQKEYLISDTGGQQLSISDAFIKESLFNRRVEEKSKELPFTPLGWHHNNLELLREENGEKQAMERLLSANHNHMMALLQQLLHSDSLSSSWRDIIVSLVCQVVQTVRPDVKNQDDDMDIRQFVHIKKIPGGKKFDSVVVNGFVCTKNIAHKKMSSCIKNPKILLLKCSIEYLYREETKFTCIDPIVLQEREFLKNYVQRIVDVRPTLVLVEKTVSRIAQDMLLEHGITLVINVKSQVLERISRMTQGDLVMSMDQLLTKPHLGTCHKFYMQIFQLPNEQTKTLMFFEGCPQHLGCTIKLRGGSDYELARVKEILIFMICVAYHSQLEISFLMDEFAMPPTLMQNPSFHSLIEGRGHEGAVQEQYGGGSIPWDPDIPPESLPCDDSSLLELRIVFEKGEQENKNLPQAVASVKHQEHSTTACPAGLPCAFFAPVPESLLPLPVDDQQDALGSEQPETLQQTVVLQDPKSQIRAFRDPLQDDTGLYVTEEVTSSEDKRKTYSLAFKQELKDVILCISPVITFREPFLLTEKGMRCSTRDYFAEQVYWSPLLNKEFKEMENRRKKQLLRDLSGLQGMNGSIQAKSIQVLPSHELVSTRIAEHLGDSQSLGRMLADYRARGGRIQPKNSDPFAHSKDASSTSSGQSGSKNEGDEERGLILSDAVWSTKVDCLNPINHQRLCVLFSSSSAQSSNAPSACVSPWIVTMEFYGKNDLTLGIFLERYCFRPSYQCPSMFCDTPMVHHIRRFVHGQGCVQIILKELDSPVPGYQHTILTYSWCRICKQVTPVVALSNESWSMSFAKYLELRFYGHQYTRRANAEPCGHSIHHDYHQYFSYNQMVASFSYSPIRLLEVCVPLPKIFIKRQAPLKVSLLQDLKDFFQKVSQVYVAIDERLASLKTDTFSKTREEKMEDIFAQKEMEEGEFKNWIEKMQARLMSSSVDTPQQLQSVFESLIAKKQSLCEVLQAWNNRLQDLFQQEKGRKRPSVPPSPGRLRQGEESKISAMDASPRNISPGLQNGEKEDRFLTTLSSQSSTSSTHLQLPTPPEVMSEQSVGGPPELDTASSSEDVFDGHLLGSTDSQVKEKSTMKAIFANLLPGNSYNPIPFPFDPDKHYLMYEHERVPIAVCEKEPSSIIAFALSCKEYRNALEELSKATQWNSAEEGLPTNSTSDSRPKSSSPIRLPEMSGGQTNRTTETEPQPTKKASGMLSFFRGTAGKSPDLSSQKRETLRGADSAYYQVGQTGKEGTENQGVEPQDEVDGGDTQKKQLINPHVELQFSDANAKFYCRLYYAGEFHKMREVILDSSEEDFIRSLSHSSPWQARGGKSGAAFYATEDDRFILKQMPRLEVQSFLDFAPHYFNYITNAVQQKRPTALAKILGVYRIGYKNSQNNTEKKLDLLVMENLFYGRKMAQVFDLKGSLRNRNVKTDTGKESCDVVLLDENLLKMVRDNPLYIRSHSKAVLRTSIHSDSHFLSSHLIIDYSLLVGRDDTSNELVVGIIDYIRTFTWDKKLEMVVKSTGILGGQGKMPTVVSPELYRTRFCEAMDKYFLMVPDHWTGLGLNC
In the case of Cc1cccc(-c2ccn(-c3nc(N4CCOCC4)c4nc(CN5CCN(C(C)C)CC5)[nH]c4n3)n2)c1 [Ex. 40, 4-(8-((4-isopropylpiperazin-1-yl)methyl)-2-(3-(m-tolyl)-1H-pyrazol-1-yl)-9H-purin-6-yl)morpholine], the IC50 is reported as 1 to 10 nM.

Same assay, conditions: read-out: PIKfyve Activity (% inhibition)
Work on Cc1cccc(-c2ccn(-c3nc(N4CCOCC4)c4sc(C#CCN(C)C)cc4n3)n2)c1 [Ex. 207, N,N-Dimethyl-3-(4-morpholino-2-(3-(m-tolyl)-1H-pyrazol-1-yl)thieno[3,2-d]pyrimidin-6-yl)prop-2-yn-1-amine] yielded an inhibition at 0.001 µM of 35%. For Cc1cccc(-c2ccn(-c3nc(N4CCOCC4)c4nc(CN5CCN(S(C)(=N)=O)CC5)[nH]c4n3)n2)c1 (centres unmarked) [Ex. 282], the inhibition at 0.001 µM was 41%. Cc1cccc(-c2ccn(-c3nc(N4CCOCC4)c4nc(CO)n(C)c4n3)n2)c1 [Ex. 315] was tested, and the inhibition at 0.001 µM was 47%. In the case of Cc1cccc(-c2ccn(-c3nc4[nH]c(C(=O)N5CCC(N6CCC6)C(F)C5)nc4c(N4CCOCC4)c3F)n2)c1 (centres unmarked) [Ex. 312], the inhibition at 0.003 µM is reported as 10%. Molecule Cc1cccc(-c2nc(-c3cc(N4CCOCC4)c4sc(CN5CCN(S(C)(=O)=O)CC5)cc4n3)cs2)c1 [Ex. 244] has an inhibition at 0.001 µM of 37%. In the case of Cc1cccc(-c2nc(-c3nc(N4CCOCC4)c4sc(CN5CCN(S(C)(=O)=O)CC5)cc4n3)co2)c1 [Ex. 241], the inhibition at 0.003 µM is reported as 0%. For Cc1cccc(-c2ccn(-c3cc(N4CCOCC4)c4nc(CN5CCN(S(=O)(=O)C6CC6)CC5)[nH]c4n3)n2)c1 [Ex. 280], the inhibition at 0.001 µM was 46%. Work on Cc1cccc(-c2ccn(-c3nc(N4CCOCC4)c4nc(CO)[nH]c4n3)n2)c1 [Ex. 314] yielded an inhibition at 0.001 µM of 40%. Work on Cc1cccc(-c2ccn(-c3nc4[nH]c(C(=O)N5CCC(C(C)(C)O)CC5)nc4c(N4CCOCC4)c3F)n2)c1 [Ex. 306] yielded an inhibition at 0.003 µM of 9%. In the case of Cc1cccc(-c2ccn(-c3nc4[nH]c(C(=O)N5CCN(S(C)(=O)=O)CC5)nc4c(N4CCOCC4)c3F)n2)c1 [Ex. 292], the inhibition at 0.001 µM is reported as 13%. Cc1cccc(-c2ccn(-c3cc(N4CCOCC4)c4nc(C(=O)N5CCN(S(C)(=O)=O)CC5)n(C)c4n3)n2)c1 [Ex. 304] gave an inhibition at 0.001 µM of 46%. Work on Cc1cccc(-c2ccn(-c3cc(N4CCOCC4)c4sc(NC(=O)C5CCCN(C)C5)cc4n3)n2)c1 (centres unmarked) [Ex. 272] yielded an inhibition at 0.001 µM of 44%. In the case of Cc1cccc(-c2ccn(-c3nc(N4CCOCC4)c4nc(C(=O)NC5COC5)[nH]c4n3)n2)c1 [Ex. 275], the inhibition at 0.001 µM is reported as 40%. For Cc1cccc(-c2ccn(-c3nc(N4CCOCC4)c4nc(CN5CCC(N(C)C)C(F)C5)n(C)c4n3)n2)c1 (centres unmarked) [Ex. 171, 3-fluoro-N,N-dimethyl-1-((9-methyl-6-morpholino-2-(3-(m-tolyl)-1H-pyrazol-1-yl)-9H-purin-8-yl)methyl)piperidin-4-amine], the inhibition at 0.003 µM was 22%. Cc1cccc(-c2ccn(-c3cc(N4CCOCC4)c4sc(CN5CCOCC5)c(C)c4n3)n2)c1 [Ex. 167, 4-(3-Methyl-2-(morpholinomethyl)-5-(3-(m-tolyl)-1H-pyrazol-1-yl)thieno[3,2-b]pyridin-7-yl)morpholine] was tested, and the inhibition at 0.001 µM was 7%. Work on Brc1ccn(-c2cc(N3CCOCC3)c3sc(CN4CCOCC4)cc3n2)n1 [Ex. 173, 4-(5-(3-Bromo-1H-pyrazol-1-yl)-2-(morpholinomethyl)thieno[3,2-b]pyridin-7-yl)morpholine] yielded an inhibition at 0.001 µM of 18%. Work on Cc1cccc(-c2ccn(-c3cc(N4CCOCC4)c4sc(CN5CCN(S(C)(=O)=O)CC5)c(C)c4n3)n2)c1 [Ex. 169, 4-(3-Methyl-2-((4-(methylsulfonyl)piperazin-1-yl)methyl)-5-(3-(m-tolyl)-1H-pyrazol-1-yl)thieno[3,2-b]pyridin-7-yl)morpholine] yielded an inhibition at 0.003 µM of 47%.

Same assay, conditions: read-out: PIKfyve Activity (PIKfyve % inhibition)
Cc1cccc(-c2ccn(-c3cc(N4CCOCC4)c4sc(C(=O)N5CCC(N6CC(F)C6)C5)cc4n3)n2)c1 (centres unmarked) [Ex. 238] was tested, and the inhibition at 0.001 µM was 52 to 100%. Cc1cccc(-c2ccn(-c3cc(N4CCOCC4)c4sc(C(=O)NC5COC5)cc4n3)n2)c1 [Ex. 179, 7-Morpholino-N-(oxetan-3-yl)-5-(3-(m-tolyl)-1H-pyrazol-1-yl)thieno[3,2-b]pyridine-2-carboxamide] showed an inhibition at 0.001 µM of 52 to 100%. With Cc1cccc(-c2ccn(-c3cc(N4CCOCC4)c4sc(C(=O)NC5CN(C)C5)cc4n3)n2)c1 [Ex. 201, N-(1-Methylazetidin-3-yl)-7-morpholino-5-(3-(m-tolyl)-1H-pyrazol-1-yl)thieno[3,2-b]pyridine-2-carboxamide] the inhibition at 0.001 µM was 52 to 100%. Cc1cccc(-c2ccn(-c3cc(N4CCOCC4)c4sc(C(=O)N5CCN(S(C)(=O)=O)CC5)c(C)c4n3)n2)c1 [Ex. 291] gave an inhibition at 0.001 µM of 52 to 100%. For Cc1cccc(-c2ccn(-c3cc(N4CCOCC4)c4sc(CO)cc4n3)n2)c1 [Ex. 313], the inhibition at 0.001 µM was 52 to 100%. Cc1cccc(-c2ccn(-c3cc(N4CCOCC4)c4sc(C(=O)N5CCN(C)CC5)cc4n3)n2)c1 [Ex. 217, (4-Methylpiperazin-1-yl) (7-morpholino-5-(3-(m-tolyl)-1H-pyrazol-1-yl)thieno[3,2-b]pyridin-2-yl)methanone] was tested, and the inhibition at 0.001 µM was 52 to 100%. In the case of Cc1cccc(-c2ccn(-c3cc(N4CCOCC4)c4sc(C(=O)NC5(C)COC5)cc4n3)n2)c1 [Ex. 252], the inhibition at 0.001 µM is reported as 52 to 100%. Work on Cc1cccc(-c2ccn(-c3cc(N4CCOCC4)c4sc(C(=O)NCCN(C)C)cc4n3)n2)c1 [Ex. 255] yielded an inhibition at 0.001 µM of 52 to 100%. Cc1cccc(-c2ccn(-c3cc(N4CCOCC4)c4nc(C(=O)NC5COC5)n(C)c4n3)n2)c1 [Ex. 308] gave an inhibition at 0.001 µM of 52 to 100%. Work on Cc1cccc(-c2ccn(-c3nc(N4CCOCC4)c4sc(/C=C/CN5CCN(C)CC5)cc4n3)n2)c1 [Ex. 180] yielded an inhibition at 0.001 µM of 52 to 100%. In the case of CNC(=O)c1cc2nc(-n3ccc(-c4cccc(C)c4)n3)cc(N3CCOCC3)c2s1 [Ex. 247], the inhibition at 0.001 µM is reported as 52 to 100%. Work on Cc1cccc(-c2ccn(-c3nc(N4CCOCC4)c4sc(N(C)C5CCN(C)CC5)nc4n3)n2)c1 [Ex. 208, N-Methyl-N-(1-methylpiperidin-4-yl)-7-morpholino-5-(3-(m-tolyl)-1H-pyrazol-1-yl)thiazolo[4,5-d]pyrimidin-2-amine] yielded an inhibition at 0.001 µM of 52 to 100%. CC(=O)N1CCN(Cc2nc3c(N4CCOCC4)cc(-n4ccc(-c5cccc(C)c5)n4)nc3[nH]2)CC1 [Ex. 301] was tested, and the inhibition at 0.001 µM was 52 to 100%. Molecule Cc1cccc(-c2ccn(-c3cc(N4CCOCC4)c4sc(CN5CCN(C(C)C)CC5)c(C)c4n3)n2)c1 [Ex. 132, 4-(2-((4-Isopropylpiperazin-1-yl)methyl)-3-methyl-5-(3-(m-tolyl)-1H-pyrazol-1-yl)thieno[3,2-b]pyridin-7-yl)morpholine] has an inhibition at 0.001 µM of 52 to 100%. With Cc1cccc(-c2ccn(-c3cc(N4CCOCC4)c4sc(CN5CCN(S(C)(=N)=O)CC5)cc4n3)n2)c1 (centres unmarked) [Ex. 284] the inhibition at 0.001 µM was 52 to 100%. Cc1cccc(-c2ccn(-c3cc(N4CCOCC4)c4nc(CO)[nH]c4n3)n2)c1 [Ex. 317] showed an inhibition at 0.001 µM of 52 to 100%. Molecule Cc1cccc(-c2ccn(-c3cc(N4CCOCC4)c4nc(CN5C6CC5CN(S(C)(=O)=O)C6)[nH]c4n3)n2)c1 [Ex. 285] has an inhibition at 0.001 µM of 52 to 100%. Cc1cccc(-c2ccn(-c3cc(N4CCOCC4)c4nc(C(=O)NC5CC5)n(C)c4n3)n2)c1 [Ex. 309] showed an inhibition at 0.001 µM of 52 to 100%. Cc1cccc(-c2ccn(-c3cc(N4CCOCC4)c4sc(C(=O)N5CCC(N6CC(F)C6)CC5)cc4n3)n2)c1 [Ex. 237] was tested, and the inhibition at 0.001 µM was 52 to 100%. Work on Cc1cccc(-c2ccn(-c3cc(N4CCOCC4)c4sc(NC(=O)C5CCN(C)C5)cc4n3)n2)c1 (centres unmarked) [Ex. 271] yielded an inhibition at 0.001 µM of 52 to 100%. For Cc1cccc(-c2ccn(-c3cc(N4CCOCC4)c4sc(NC(=O)C5CCN(C)CC5)cc4n3)n2)c1 [Ex. 235], the inhibition at 0.001 µM was 52 to 100%. Cc1cccc(-c2ccn(-c3cc(N4CCOCC4)c4sc(C(=O)NC5CC5)cc4n3)n2)c1 [Ex. 183, N-cyclopropyl-7-morpholino-5-(3-(m-tolyl)-1H-pyrazol-1-yl)thieno[3,2-b]pyridine-2-carboxamide] gave an inhibition at 0.001 µM of 52 to 100%. Molecule Cc1cccc(-c2ccn(-c3cc(N4CCOCC4)c4nc(C(=O)N5CCC(N6CCC6)C(F)C5)[nH]c4n3)n2)c1 (centres unmarked) [Ex. 89] has an inhibition at 0.001 µM of 52 to 100%. Cc1cccc(-c2ccn(-c3nc(N4CCOCC4)c4nc(C(=O)N5CCN(S(C)(=O)=O)CC5)[nH]c4n3)n2)c1 [Ex. 78] showed an inhibition at 0.001 µM of 52 to 100%. In the case of Cc1cccc(-c2ccn(-c3cc(N4CCOCC4)c4sc(C(=O)Nc5ccccn5)cc4n3)n2)c1 [Ex. 299], the inhibition at 0.001 µM is reported as 52 to 100%. With Cc1cccc(-c2ccn(-c3cc(N4CCOCC4)c4sc(NC(=O)C5CNC5)cc4n3)n2)c1 [Ex. 278] the inhibition at 0.001 µM was 52 to 100%. Work on Cc1cccc(-c2ccn(-c3cc(N4CCOCC4)c4nc(C(=O)NC5CC5)[nH]c4n3)n2)c1 [Ex. 305] yielded an inhibition at 0.001 µM of 52 to 100%. In the case of Cc1cccc(-c2ccn(-c3cc(N4CCOCC4)c4nc(C(=O)NC5COC5)[nH]c4n3)n2)c1 [Ex. 298], the inhibition at 0.001 µM is reported as 52 to 100%. Cc1cccc(-c2ccn(-c3cc(N4CCOCC4)c4sc(C(=O)N5CCC(N6CCC6)C(F)C5)cc4n3)n2)c1 (centres unmarked) [Ex. 236] was tested, and the inhibition at 0.001 µM was 52 to 100%. Molecule Cc1cccc(-c2ccn(-c3nc(N4CCOCC4)c4nc(C(=O)N5CCN(C(C)C)CC5)[nH]c4n3)n2)c1 [Ex. 86] has an inhibition at 0.001 µM of 52 to 100%. Cc1cccc(-c2ccn(-c3cc(N4CCOCC4)c4nc(CN5CCN(C(C)C)CC5)n(C)c4n3)n2)c1 [Ex. 79, 4-(2-((4-isopropylpiperazin-1-yl)methyl)-3-methyl-5-(3-(m-tolyl)-1H-pyrazol-1-yl)-3H-imidazo[4,5-b]pyridin-7-yl)morpholine] showed an inhibition at 0.001 µM of 52 to 100%. Cc1cccc(-c2ccn(-c3cc(N4CCOCC4)c4sc(C(=O)N5CCN(S(C)(=O)=O)CC5)cc4n3)n2)c1 [Ex. 240] was tested, and the inhibition at 0.001 µM was 52 to 100%. Work on Cc1cccc(-c2ccn(-c3cc(N4CCOCC4)c4nc(COCc5ccccc5)[nH]c4n3)n2)c1 [Ex. 316] yielded an inhibition at 0.001 µM of 52 to 100%. In the case of Cc1cccc(-c2ccn(-c3cc(N4CCOCC4)c4nc(CN5CCC(C(N)=O)CC5)[nH]c4n3)n2)c1 [Ex. 303], the inhibition at 0.001 µM is reported as 52 to 100%. Cc1cccc(-c2ccn(-c3cc(N4CCOCC4)c4sc(C(=O)NC5CCOCC5)cc4n3)n2)c1 [Ex. 177, 7-Morpholino-N-(tetrahydro-2H-pyran-4-yl)-5-(3-(m-tolyl)-1H-pyrazol-1-yl)thieno[3,2-b]pyridine-2-carboxamide] was tested, and the inhibition at 0.001 µM was 52 to 100%.
